Results: patent US12365655B2, “Compounds” (CTXT PTY LTD, priority 2018, dated 2025)

What was measured:
[1] = test system: acetylation of the histone H3 Lysine 14 marker in U2OS cells; assay: Histone H3 Lysine 14 Acetylation Biomarker Assay; type: cell-based; conditions: Homo sapiens, serum free medium, 24 hours incubation, read-out: IC50, inhibition of histone H3 Lysine 14 acetylation
Experimental: Compounds were tested for their ability to inhibit acetylation of the histone H3 Lysine 14 marker in the following assay:
The cell line U2OS was seeded at a density of 3,000 cells per well in 384-well optical quality tissue culture plates in RPMI medium supplemented with 10% foetal bovine serum and 10 mM Hepes. The cells were allowed to adhere for 24 hours under standard culture conditions (37 degree Celsius, 5% CO2). At the end of this period the cells were washed with serum free medium. […] After incubation for 24 hours, the cells were fixed with 4% formaldehyde in PBS for 15 minutes at room temperature, washed with phosphate buffer saline and blocked with blocking buffer containing 0.2% TritonX100 and 2% BSA. Anti-H3K14ac specific antibody (Cell Signalling Technologies) in blocking buffer was added and incubated overnight at 4 degree Celsius. After washing, a secondary antibody labelled with AlexaFluor 488 dye (ThermoFisher) and Hoechst 33342 (1 μg/mL, Life Technologies) were added for 2 hours incubation at room temperature. Plates were washed and read on a PerkinElmer Opera HCS high content imaging platform. Using a Columbus image analysis pipeline, individual nuclei were located by Hoechst 33342 stain and the acetylation level was calculated from the AlexaFluor 488-related intensity in the same area.

TIP60-KAT5 = TIP60-KAT5 (Homo sapiens, UniProt Q92993); assay: Acetyltransferase biochemical assay (AlphaScreen), KAT5
Sequence of TIP60-KAT5 (Q92993 with tags, fused parts or gaps isoform Q92993-2): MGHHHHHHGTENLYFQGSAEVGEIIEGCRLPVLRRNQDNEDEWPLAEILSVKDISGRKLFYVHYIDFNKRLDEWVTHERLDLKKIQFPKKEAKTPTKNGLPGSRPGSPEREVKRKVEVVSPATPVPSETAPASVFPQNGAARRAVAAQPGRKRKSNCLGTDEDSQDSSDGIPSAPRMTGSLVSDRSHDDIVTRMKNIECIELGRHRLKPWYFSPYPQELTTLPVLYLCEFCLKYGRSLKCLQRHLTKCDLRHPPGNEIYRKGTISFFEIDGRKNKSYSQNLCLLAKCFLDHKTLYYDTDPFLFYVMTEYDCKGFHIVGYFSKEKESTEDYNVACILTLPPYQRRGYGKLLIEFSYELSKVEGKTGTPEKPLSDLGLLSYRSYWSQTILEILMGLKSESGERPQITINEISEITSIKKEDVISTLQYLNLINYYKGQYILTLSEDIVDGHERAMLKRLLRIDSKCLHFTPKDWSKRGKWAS

HBO-KAT7 = HBO-KAT7 (Homo sapiens, UniProt O95251); assay: Acetyltransferase biochemical assay (AlphaScreen), KAT7
Sequence of HBO-KAT7 (O95251 with tags, fused parts or gaps): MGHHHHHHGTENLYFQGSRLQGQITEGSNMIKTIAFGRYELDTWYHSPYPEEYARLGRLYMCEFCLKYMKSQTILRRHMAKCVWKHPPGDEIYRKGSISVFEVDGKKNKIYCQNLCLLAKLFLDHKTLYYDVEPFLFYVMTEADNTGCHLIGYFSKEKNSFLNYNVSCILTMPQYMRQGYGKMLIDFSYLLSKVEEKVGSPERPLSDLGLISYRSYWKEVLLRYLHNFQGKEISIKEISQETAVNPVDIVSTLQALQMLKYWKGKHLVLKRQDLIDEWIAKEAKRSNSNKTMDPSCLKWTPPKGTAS

MOZ-KAT6A = MOZ-KAT6A (Homo sapiens, UniProt Q92794, A567V); assay: Acetyltransferase biochemical assay (AlphaScreen), KAT6A
Sequence of MOZ-KAT6A (Q92794 with tags, fused parts or gaps A567V): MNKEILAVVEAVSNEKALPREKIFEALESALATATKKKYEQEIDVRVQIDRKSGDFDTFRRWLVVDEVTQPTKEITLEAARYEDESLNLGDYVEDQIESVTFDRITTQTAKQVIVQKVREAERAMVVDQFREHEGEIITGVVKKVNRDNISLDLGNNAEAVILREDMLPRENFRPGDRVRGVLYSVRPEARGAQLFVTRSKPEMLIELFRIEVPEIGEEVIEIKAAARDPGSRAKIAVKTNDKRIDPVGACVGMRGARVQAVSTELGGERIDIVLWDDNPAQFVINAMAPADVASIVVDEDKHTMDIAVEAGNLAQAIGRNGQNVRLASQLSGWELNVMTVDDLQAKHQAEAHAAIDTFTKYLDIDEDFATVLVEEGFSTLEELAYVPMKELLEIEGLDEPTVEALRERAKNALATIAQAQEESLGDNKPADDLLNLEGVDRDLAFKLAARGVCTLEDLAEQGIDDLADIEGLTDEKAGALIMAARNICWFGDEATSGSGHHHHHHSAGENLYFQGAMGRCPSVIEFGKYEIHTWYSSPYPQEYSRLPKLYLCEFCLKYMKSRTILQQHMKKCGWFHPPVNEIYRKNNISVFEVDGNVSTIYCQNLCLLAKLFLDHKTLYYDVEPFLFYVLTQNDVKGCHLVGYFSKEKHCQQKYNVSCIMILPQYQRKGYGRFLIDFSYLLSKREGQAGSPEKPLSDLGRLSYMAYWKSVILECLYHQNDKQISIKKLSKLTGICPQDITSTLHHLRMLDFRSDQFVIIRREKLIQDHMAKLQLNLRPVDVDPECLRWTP

MOF-KAT8 = target: T1, MOF-KAT8 (Homo sapiens, UniProt Q9H7Z6); assay: biochemical
T1 sequence (Q9H7Z6 with tags, fused parts or gaps): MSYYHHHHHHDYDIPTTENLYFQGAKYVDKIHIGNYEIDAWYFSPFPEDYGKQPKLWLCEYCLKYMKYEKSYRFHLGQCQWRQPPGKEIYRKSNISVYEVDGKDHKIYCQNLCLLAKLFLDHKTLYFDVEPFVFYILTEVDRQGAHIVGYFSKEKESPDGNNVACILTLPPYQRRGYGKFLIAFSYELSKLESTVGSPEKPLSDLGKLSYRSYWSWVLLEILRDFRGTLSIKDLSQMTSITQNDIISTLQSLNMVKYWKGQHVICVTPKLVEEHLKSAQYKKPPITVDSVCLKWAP

[2] = test system: histone H2A.Z Lysine 7 acetylation marker in U2OS cells; assay: H2A.Z Lysine 7 Acetylation Biomarker Assay; type: cell-based; conditions: Homo sapiens, serum free medium, 24 hours incubation, read-out: IC50, inhibition of histone H2A.Z Lysine 7 acetylation
Experimental: Compounds were tested for their ability to inhibit the histone H2A.Z Lysine 7 acetylation marker in the following assay:
The cell line U2OS was seeded at a density of 3,000 cells per well in 384-well optical quality tissue culture plates in RPMI medium supplemented with 10% foetal bovine serum and 10 mM Hepes. The cells were allowed to adhere for 24 hours under standard culture conditions (37 degree Celsius, 5% CO2). At the end of this period the cells were washed with serum free medium. […] 2018, at 30 μM concentration. After incubation for 24 hours, the cells were fixed with 4% formaldehyde in PBS for 15 minutes at room temperature, washed with phosphate buffer saline and blocked with blocking buffer containing 0.2% TritonX100 and 2% BSA. Anti-H2A.ZK7ac specific antibody (Abcam) in blocking buffer was added and incubated overnight at 4 degree Celsius. After washing, a secondary antibody labelled with AlexaFluor 488 dye (ThermoFisher) and Hoechst 33342 (1 μg/mL, Life Technologies) were added for 2 hours incubation at room temperature. Plates were washed and read on a PerkinElmer Opera HCS high content imaging platform. Using a Columbus image analysis pipeline, individual nuclei were located by Hoechst 33342 stain and the acetylation level was calculated from the AlexaFluor 488-related intensity in the same area.

[3] = test system: acetylation of the histone H3K23 marker in U2OS cells; assay: Histone H3 Lysine 23 Acetylation Biomarker Assay; type: cell-based; conditions: Homo sapiens, 24 hours incubation, read-out: IC50, inhibition of histone H3K23 acetylation
Experimental: Compounds were tested for their ability to inhibit acetylation of the histone H3K23 marker in the following assay:
The cell line U2OS was seeded at a density of 9,000 cells per well in 96 well optical quality tissue culture plates in RPMI medium and 10% foetal bovine serum, and allowed to adhere for 24 hours under standard culture conditions (37 degree Celsius, 5% CO2). At the end of this period the medium was aspirated. […] After incubation for 24 hours, the cells were fixed with 3.7% formaldehyde in PBS for 20 minutes at room temperature, washed (5×5 minutes) with phosphate buffer saline containing 0.1% Tween 20 and blocked with Odyssey blocking buffer (LI-COR, Lincoln, Nebr.) containing 0.1% TritonX100. Anti-H3K23ac specific antibody (Abcam ab177275) in Odyssey blocking buffer containing 0.1% Tween 20 was added and incubated for 16 hours at 4 degree Celsius. After washing (as above), a secondary antibody labelled with Alexa647 dye (LifeTechnologies) and Hoechst 33342 (1 μg/mL, SigmaAldrich) were added for 1 hour incubation. Plates were washed as previously and read on a PerkinElmer Phenix high content imaging platform. Using a Columbus image analysis pipeline, individual nuclei were located by Hoechst 33342 stain and the acetylation level was calculated from the Alexa647-related intensity in the same area.

QKF-KAT6B = target: T2, QKF-KAT6B (Homo sapiens, UniProt Q8WYB5); assay: Acetyltransferase biochemical assay (AlphaScreen), KAT6B; conditions: 8 nM KAT6B, 1 μM AcCoA, 100 nM histone H3.1
T2 construct: purchased SignalChem K315-381BG
T2 sequence (Q8WYB5 whole entry): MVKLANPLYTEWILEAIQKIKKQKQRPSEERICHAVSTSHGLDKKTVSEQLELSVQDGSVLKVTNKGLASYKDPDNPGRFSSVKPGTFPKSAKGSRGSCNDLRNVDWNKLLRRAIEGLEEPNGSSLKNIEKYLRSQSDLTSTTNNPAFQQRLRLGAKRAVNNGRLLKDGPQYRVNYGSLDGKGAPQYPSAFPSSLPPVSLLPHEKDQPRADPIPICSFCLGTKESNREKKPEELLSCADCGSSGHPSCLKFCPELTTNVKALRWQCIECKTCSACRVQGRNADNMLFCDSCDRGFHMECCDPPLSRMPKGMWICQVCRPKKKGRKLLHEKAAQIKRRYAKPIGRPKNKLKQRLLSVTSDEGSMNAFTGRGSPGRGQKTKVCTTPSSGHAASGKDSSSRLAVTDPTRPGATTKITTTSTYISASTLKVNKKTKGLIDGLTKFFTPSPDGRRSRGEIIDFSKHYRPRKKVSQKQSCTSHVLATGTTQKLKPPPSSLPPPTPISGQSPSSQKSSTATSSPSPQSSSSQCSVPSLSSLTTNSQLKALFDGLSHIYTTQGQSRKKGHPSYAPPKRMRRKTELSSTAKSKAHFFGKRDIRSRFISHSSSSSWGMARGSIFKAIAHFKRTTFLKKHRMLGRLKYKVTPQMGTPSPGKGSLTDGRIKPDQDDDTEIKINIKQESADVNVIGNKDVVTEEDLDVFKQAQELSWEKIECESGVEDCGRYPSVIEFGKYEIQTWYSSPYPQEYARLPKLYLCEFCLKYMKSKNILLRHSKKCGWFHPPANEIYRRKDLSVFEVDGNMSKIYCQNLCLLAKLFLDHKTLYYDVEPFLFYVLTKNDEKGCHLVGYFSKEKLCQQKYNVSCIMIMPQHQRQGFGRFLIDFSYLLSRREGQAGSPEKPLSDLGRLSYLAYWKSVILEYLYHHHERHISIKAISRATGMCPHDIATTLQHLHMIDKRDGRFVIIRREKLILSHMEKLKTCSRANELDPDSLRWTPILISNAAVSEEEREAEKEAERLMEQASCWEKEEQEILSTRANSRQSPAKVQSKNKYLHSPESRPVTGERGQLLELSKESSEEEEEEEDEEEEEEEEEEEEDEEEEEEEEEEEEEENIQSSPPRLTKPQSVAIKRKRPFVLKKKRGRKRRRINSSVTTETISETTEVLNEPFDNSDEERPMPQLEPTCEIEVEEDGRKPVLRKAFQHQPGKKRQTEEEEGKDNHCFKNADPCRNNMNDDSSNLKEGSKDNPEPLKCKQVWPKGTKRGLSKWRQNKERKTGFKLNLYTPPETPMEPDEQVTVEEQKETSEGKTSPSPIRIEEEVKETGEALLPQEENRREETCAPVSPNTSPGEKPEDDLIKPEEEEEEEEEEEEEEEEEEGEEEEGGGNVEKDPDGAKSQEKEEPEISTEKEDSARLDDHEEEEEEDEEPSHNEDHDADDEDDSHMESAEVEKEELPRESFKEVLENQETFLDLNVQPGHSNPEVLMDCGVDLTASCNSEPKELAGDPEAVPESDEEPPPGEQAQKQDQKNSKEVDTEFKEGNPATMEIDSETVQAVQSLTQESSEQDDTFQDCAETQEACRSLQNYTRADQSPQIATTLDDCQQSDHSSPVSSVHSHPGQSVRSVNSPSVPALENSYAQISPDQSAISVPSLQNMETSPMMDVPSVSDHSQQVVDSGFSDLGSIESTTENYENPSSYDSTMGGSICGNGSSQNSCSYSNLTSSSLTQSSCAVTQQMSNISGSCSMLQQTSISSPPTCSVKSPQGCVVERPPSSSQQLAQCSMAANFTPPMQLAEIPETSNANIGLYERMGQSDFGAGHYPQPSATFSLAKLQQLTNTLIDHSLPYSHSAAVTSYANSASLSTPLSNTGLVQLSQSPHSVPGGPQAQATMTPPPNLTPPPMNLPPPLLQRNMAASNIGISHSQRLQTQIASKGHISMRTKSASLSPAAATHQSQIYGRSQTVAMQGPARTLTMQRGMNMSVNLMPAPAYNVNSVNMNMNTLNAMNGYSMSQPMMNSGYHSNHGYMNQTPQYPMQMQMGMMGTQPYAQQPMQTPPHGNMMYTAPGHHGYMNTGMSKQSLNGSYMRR
Source text: KAT6B was obtained from SignalChem, catalog ID: K315-381BG

| IC50 [1] | IC50 (TIP60-KAT5) | IC50 (HBO-KAT7) | IC50 (MOZ-KAT6A) | IC50 [2] | IC50 [3] | IC50 (QKF-KAT6B) | Compound | IC50 (MOF-KAT8) |
| --- | --- | --- | --- | --- | --- | --- | --- | --- |
| 10.3 µM | 9.3 µM | 1.05 µM | 2.12 µM |  |  |  | COc1cccc(F)c1S(=O)(=O)Nc1noc2cccc(OC)c12 [Example 212, 2-Fluoro-6-methoxy-N-(4-methoxybenzo[d]isoxazol-3-yl)benzenesulfonamide] |  |
| 24.7 µM | 102 µM | 1.3 µM | 4.16 µM | > 40 µM |  |  | COc1cccc(OC)c1S(=O)(=O)Nc1noc2c(-c3ccccc3)cc(C)cc12 [Example 252, 2,6-Dimethoxy-N-(5-methyl-7-phenylbenzo[d]isoxazol-3-yl)benzenesulfonamide] |  |
| 3.48 µM | 12.2 µM | 0.05 µM | 0.423 µM | 13.2 µM | 3.71 µM |  | COc1cncc(-c2cc(OC)c3c(NS(=O)(=O)c4c(OC)cccc4OC)noc3c2)c1 [Example 250, 2,6-Dimethoxy-N-(4-methoxy-6-(5-methoxypyridin-3-yl)benzo[d]isoxazol-3-yl)benzenesulfonamide] |  |
|  | 43.2 µM | 5.95 µM | 0.441 µM |  |  | 0.821 µM | COCc1cc(OC)c2c(NS(=O)(=O)c3c(OC)ccc(Cl)c3OC)noc2c1 [Example 175, 3-Chloro-2,6-dimethoxy-N-(4-methoxy-6-(methoxymethyl)benzo[d]isoxazol-3-yl)benzenesulfonamide] |  |
| > 40 µM | > 125 µM | 6.44 µM | 6.59 µM |  |  |  | CCOc1cccc(OC)c1S(=O)(=O)Nc1noc2cccc(OC)c12 [Example 218, 2-Ethoxy-6-methoxy-N-(4-methoxybenzo[d]isoxazol-3-yl)benzenesulfonamide] |  |
|  | 97.6 µM | 1.98 µM | 5.89 µM |  | 1.58 µM |  | COc1cccc(OC)c1S(=O)(=O)Nc1noc2cccc(OC)c12 [Example 86, 2,6-dimethoxy-N-(4-methoxybenzo[d]isoxazol-3-yl)benzene sulfonamide] |  |
|  | 27.3 µM | 1.78 µM | 3.23 µM |  | 0.672 µM |  | COc1cccc(OC)c1S(=O)(=O)Nc1noc2cc(OC(F)F)cc(OC)c12 [Example 242] |  |
| 17.8 µM | 68.7 µM | 1.58 µM | 12.6 µM | > 40 µM | > 10 µM |  | CCc1ccc(OC)c(S(=O)(=O)Nc2noc3c(-c4cnn(C)c4)cccc23)c1 [Example 191, 5-Ethyl-2-methoxy-N-(7-(1-methyl-1H-pyrazol-4-yl)benzo[d]isoxazol-3-yl)benzenesulfonamide] |  |
| > 40 µM | 33.5 µM | 5.75 µM | 23.5 µM |  |  |  | COc1ccnc2c(S(=O)(=O)Nc3noc4cccc(OC)c34)cccc12 [Example 75, 4-methoxy-N-(4-methoxybenzo[d]isoxazol-3-yl)quinoline-8-sulfonamide] |  |
| 31.7 µM | 8.13 µM | 1.66 µM | 3.91 µM |  |  |  | COc1ccc(S(=O)(=O)Nc2noc3cccc(OC)c23)c2ncccc12 [Example 74, 5-methoxy-N-(4-methoxybenzo[d]isoxazol-3-yl) quinoline-8-sulfonamide] |  |
| 26.1 µM | 0.672 µM | 0.248 µM | 2.12 µM | > 40 µM | > 10 µM |  | COc1ccccc1S(=O)(=O)Nc1noc2cccc(Cl)c12 [Example 155] |  |
| 3.96 µM | 5.79 µM | 0.168 µM | 0.285 µM | 19.8 µM |  |  | COc1cccc(OC)c1S(=O)(=O)Nc1noc2cc(Br)cc(OC)c12 [Example 89] |  |
| 12.6 µM | 8.25 µM | 1.5 µM | 6.13 µM |  |  |  | COc1cccc2onc(NS(=O)(=O)c3cccc4c3OCCC4)c12 [Example 82, N-(4-methoxybenzo[d]isoxazol-3-yl)chromane-8-sulfonamide] |  |
| 3.38 µM | 21 µM | 0.259 µM | 0.127 µM | > 40 µM | 0.098 µM |  | COCc1cc2onc(NS(=O)(=O)c3c(OC)cccc3OC)c2c(OC)c1Cl [Example 145] |  |
|  | 10.9 µM | 3.74 µM | 0.381 µM | > 40 µM |  |  | CCc1ccc(OC)c(S(=O)(=O)Nc2noc3ccc(C)cc23)c1 [Example 234, 5-Ethyl-2-methoxy-N-(5-methylbenzo[d]isoxazol-3-yl)benzenesulfonamide] |  |
| 11.5 µM | 10.9 µM | 1.13 µM | 3.47 µM |  |  |  | COc1cccc2onc(NS(=O)(=O)c3cccc4ccc(C)nc34)c12 [Example 80, N-(4-methoxybenzo[d]isoxazol-3-yl)-2-methyl quinoline-8-sulfonamide] |  |
| 2.57 µM | 4.37 µM | 0.292 µM | 1.88 µM |  |  |  | COc1ccc(S(=O)(=O)Nc2noc3cc(Br)c(C)cc23)c(OC)c1 [Example 171] |  |

| Compound | IC50 [1] | IC50 (TIP60-KAT5) | IC50 (HBO-KAT7) | IC50 (MOZ-KAT6A) | IC50 [2] | IC50 [3] | IC50 (QKF-KAT6B) | IC50 (MOF-KAT8) |
| --- | --- | --- | --- | --- | --- | --- | --- | --- |
| COc1cc(CNC(C)=O)cc(OC)c1S(=O)(=O)Nc1noc2cccc(OC)c12 [Example 211, N-(3,5-Dimethoxy-4-(N-(4-methoxybenzo[d]isoxazol-3-yl)sulfamoyl)benzyl)acetamide] | > 40 µM | 7.93 µM | 0.917 µM | 2.13 µM |  |  |  | 29.5 µM |
| COc1ccc(S(=O)(=O)Nc2noc3cc(C(N)=O)c(C)cc23)c2ncccc12 [Example 168, 3-((5-methoxyquinoline)-8-sulfonamido)-5-methylbenzo[d]isoxazole-6-carboxamide] |  | 3.42 µM | 36.4 µM | 10 µM | > 40 µM |  |  | 6.46 µM |
| CCc1ccc(OC)c(S(=O)(=O)Nc2noc3ccc(C4CC4)cc23)c1 [Example 236] | > 40 µM | 10.1 µM | 1.07 µM | 0.318 µM | > 40 µM |  |  | 3.68 µM |
| COCc1cc(OC)c2c(NS(=O)(=O)c3c(O)cccc3OC)noc2c1 [Example 163, 2-hydroxy-6-methoxy-N-(4-methoxy-6-(methoxymethyl)benzo[d]isoxazol-3-yl)benzenesulfonamide] | 20.4 µM | > 125 µM | 13.1 µM | 0.884 µM |  |  |  | > 125 µM |
